Source: ChEMBL document CHEMBL5518221, “Discovery and Optimization of Selective Brain-Penetrant EBP Inhibitors that Enhance Oligodendrocyte Formation” (J Med Chem, 2024)
In brackets after ≈: the same amount, converted by molar mass. One block for each molecule: values may come before it.

Tests used:
[1] = Clearance in male Sprague-Dawley rat at 1 mg/kg, iv measured after 8 hrs by LC-MS/MS analysis; settings: in vivo
[2] = target: T1, 3-beta-hydroxysteroid-Delta(8),Delta(7)-isomerase (Mus musculus, UniProt P70245); test: Inhibition of EBP in mouse Oligodendrocyte precursor cell assessed as zymostenol accumulation by GCMS analysis
T1 sequence (P70245 whole entry): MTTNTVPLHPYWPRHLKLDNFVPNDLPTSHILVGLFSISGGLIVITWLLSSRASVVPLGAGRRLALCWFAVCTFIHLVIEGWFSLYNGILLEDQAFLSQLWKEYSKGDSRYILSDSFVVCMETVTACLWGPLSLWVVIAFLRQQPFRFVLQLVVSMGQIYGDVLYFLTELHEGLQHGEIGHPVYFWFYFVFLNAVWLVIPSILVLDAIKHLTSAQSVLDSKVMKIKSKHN

[3] = Volume of distribution at steady state in female C57BL/6 mouse at 1 mg/kg, iv measured after 0.083 hrs by LC-MS/MS analysis; settings: in vivo
[4] = Unbound brain-to-plasma concentration ratio in male Sprague-Dawley rat at 1 mg/kg, iv measured after 8 hrs by LC-MS/MS analysis
[5] = Dissociation constant, pKa of compound
[6] = in vitro; settings: CD-1, mouse, pooled liver microsomes
[7] = Volume of distribution at steady state in male Sprague-Dawley rat at 1 mg/kg, iv measured after 8 hrs by LC-MS/MS analysis; settings: in vivo
[8] = Unbound brain-to-plasma concentration ratio in female C57BL/6 mouse at 1 mg/kg, iv measured after 8 hrs by LC-MS/MS analysis
[9] = Half-life in female C57BL/6 mouse at 1 mg/kg, iv measured after 0.083 hrs by LC-MS/MS analysis; settings: in vivo
[10] = Half-life in male Sprague-Dawley rat at 1 mg/kg, iv measured after 8 hrs by LC-MS/MS analysis; settings: in vivo
[11] = Clearance in female C57BL/6 mouse at 1 mg/kg, iv measured after 0.083 hrs by LC-MS/MS analysis; settings: in vivo
[12] = target: Voltage-gated inwardly rectifying potassium channel KCNH2 (Homo sapiens, UniProt Q12809); test: Inhibition of human ERG expressed in CHO cells by whole cell patch clamp recording
Voltage-gated inwardly rectifying potassium channel KCNH2, sequence (Q12809 whole entry): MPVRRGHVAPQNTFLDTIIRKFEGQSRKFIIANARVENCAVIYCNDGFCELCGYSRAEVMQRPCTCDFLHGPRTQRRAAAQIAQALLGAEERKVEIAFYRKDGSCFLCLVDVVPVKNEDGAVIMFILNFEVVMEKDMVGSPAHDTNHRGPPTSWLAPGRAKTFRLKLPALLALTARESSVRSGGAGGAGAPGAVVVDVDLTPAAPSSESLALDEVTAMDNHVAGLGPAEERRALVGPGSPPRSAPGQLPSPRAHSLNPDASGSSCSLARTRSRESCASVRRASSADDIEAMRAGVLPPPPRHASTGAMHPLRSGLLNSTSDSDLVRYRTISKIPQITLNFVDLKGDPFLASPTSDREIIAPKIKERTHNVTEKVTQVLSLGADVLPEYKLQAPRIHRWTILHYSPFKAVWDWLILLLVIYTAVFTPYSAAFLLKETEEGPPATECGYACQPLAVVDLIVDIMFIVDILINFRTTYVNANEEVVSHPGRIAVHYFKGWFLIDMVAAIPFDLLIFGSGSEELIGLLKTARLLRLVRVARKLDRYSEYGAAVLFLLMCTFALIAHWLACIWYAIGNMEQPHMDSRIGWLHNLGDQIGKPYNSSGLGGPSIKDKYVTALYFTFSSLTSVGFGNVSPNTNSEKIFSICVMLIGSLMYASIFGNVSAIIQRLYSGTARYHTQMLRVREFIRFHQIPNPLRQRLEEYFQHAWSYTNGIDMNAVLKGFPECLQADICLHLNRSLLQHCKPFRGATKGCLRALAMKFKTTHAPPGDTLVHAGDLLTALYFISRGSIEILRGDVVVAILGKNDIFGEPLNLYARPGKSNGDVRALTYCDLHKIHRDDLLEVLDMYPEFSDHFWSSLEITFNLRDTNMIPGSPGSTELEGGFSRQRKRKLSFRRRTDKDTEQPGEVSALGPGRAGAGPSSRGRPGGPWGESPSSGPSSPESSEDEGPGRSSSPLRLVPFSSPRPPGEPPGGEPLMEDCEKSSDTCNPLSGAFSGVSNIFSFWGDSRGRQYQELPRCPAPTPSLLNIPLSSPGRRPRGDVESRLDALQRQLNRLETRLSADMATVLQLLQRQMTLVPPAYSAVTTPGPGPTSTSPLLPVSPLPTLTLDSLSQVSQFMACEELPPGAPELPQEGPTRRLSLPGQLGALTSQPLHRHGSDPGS

[13] = Half-life in female C57BL/6 mouse at 10 mg/kg, po measured after 24 hrs by LC-MS/MS analysis; settings: in vivo
[14] = Protein binding in CD-1 mouse plasma at 5 uM incubated for 6 hrs by equilibrium dialysis based HPLC analysis
[15] = in vivo; settings: female, C57BL/6, mouse, brain/plasma, 2 mg/kg
Description: Unbound brain-to-plasma concentration ratio in female C57BL/6 mouse at 2 mg/kg administered daily for 7 days and measured 8 hrs post last dose

[16] = Half-life in male Sprague-Dawley rat at 5 mg/kg, po measured after 8 hrs by LC-MS/MS analysis; settings: in vivo
[17] = Unbound brain-to-plasma concentration ratio in female C57BL/6 mouse at 0.2 mg/kg administered daily for 7 days and measured 8 hrs post last dose
[18] = system: MDR1; test: in vitro; settings: dog, MDCK-MDR1
[19] = Kinetic solubility of compound in PBS at pH 7.4
[20] = system: BCRP; test: in vitro; settings: dog
[21] = Protein binding in human plasma at 5 uM incubated for 6 hrs by equilibrium dialysis based HPLC analysis
[22] = in vivo; settings: male, Sprague-Dawley, rat, po, 5 mg/kg
[23] = Protein binding in Sprague-Dawley rat plasma at 5 uM incubated for 6 hrs by equilibrium dialysis based HPLC analysis
[24] = in vivo; settings: female, C57BL/6, mouse, po, 10 mg/kg
[25] = Unbound brain-to-plasma concentration ratio in male Sprague-Dawley rat at 5 mg/kg, po measured after 8 hrs by LC-MS/MS analysis
[26] = Unbound brain-to-plasma concentration ratio in female C57BL/6 mouse at 10 mg/kg, po measured after 8 hrs by LC-MS/MS analysis
[27] = target: 3-beta-hydroxysteroid-Delta(8),Delta(7)-isomerase (Homo sapiens, UniProt Q15125); test: Inhibition of EBP in human Mesenchymal stem cells assessed as zymostenol accumulation by GCMS analysis
3-beta-hydroxysteroid-Delta(8),Delta(7)-isomerase (Homo sapiens, UniProt Q15125), sequence (Q15125 whole entry): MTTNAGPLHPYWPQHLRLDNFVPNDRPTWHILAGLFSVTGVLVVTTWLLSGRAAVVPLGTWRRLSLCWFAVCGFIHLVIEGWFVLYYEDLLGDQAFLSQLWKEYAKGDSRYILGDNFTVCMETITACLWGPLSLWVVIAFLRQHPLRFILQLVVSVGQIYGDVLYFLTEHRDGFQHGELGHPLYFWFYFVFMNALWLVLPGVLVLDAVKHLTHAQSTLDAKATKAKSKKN

clearance at 8 h [1]: 6.3 mL/min/kg
EC50 [2]: 6 nM
Vd at […] [3]: 7.4 L/kg
Kp uu at 8 h [4]: 1.59
pKa [5]: 7.9
CLhep predicted at 1 h, 1 µM [6]: 17 mL/min/kg
Vd at 8 h [7]: 8.3 L/kg
Kp uu at 8 h [8]: 0.95
half-life at […] [9]: 62 h
half-life at 8 h [10]: 16 h
clearance at […] [11]: 4 mL/min/kg
Structure (SMILES): CCN1C(=O)N(c2ccc(C(F)(F)F)cc2)C(=O)C12CCN(CC1CCOCC1)CC2
IC50 [12]: 3000 nM

EC50 [2]: 9 nM
CLhep predicted at 1 h, 1 µM [6]: 47 mL/min/kg
half-life at […] [9]: 1.2 h
Structure (SMILES): CCN1C(=O)N(c2cccc(C3CC3)c2)C(=O)C12CCN(CC1CCOCC1)CC2

EC50 [2]: 1000 nM
CLhep predicted at 1 h, 1 µM [6]: < 14 mL/min/kg
Structure (SMILES): O=C1NC2(CCN(CC3CCOCC3)CC2)C(=O)N1c1ccc(C(F)(F)F)cc1

half-life at 24 h [13]: 3.3 h
fraction unbound at 6 h, 5 µM [14]: 0.364
Kp uu at 176 h [15]: 0.6
clearance at 8 h [1]: 17 mL/min/kg
half-life at 8 h [16]: 5.1 h
Kp uu at 176 h [17]: 1.7
EC50 [2]: 8 nM
Papp A→B [18]: 15 ×10⁻⁶ cm/s
Vd at […] [3]: 5.2 L/kg
solubility kinetic [19]: 64 µM (≈ 26.3 µg/mL)
Kp uu at 8 h [4]: 0.74
Papp A→B [20]: 20 ×10⁻⁶ cm/s
fraction unbound at 6 h, 5 µM [21]: 0.291
bioavailability at 8 h [22]: 42%
CLhep predicted at 1 h, 1 µM [6]: < 14 mL/min/kg
Vd at 8 h [7]: 6.2 L/kg
Kp uu at 8 h [8]: 0.77
half-life at […] [9]: 3.9 h
fraction unbound at 6 h, 5 µM [23]: 0.3
bioavailability at 24 h [24]: 68%
half-life at 8 h [10]: 4.4 h
clearance at […] [11]: 17 mL/min/kg
Kp uu at 8 h [25]: 0.5
Kp uu at 8 h [26]: 0.72
Structure (SMILES): CCN1C(=O)N(c2ccc(C3CC3)cc2)C(=O)C12CCN(CC1CCOCC1)CC2
IC50 [12]: 8200 nM

EC50 [2]: 364 nM
pKa [5]: 8.2
Structure (SMILES): CCN1C(=O)N(c2ccc(C(F)(F)F)cc2)C(=O)C12CCN(C1CCOCC1)CC2
IC50 [12]: 4400 nM

EC50 [2]: 43 nM
pKa [5]: 8.1
Structure (SMILES): CCN1C(=O)N(c2ccc(C(F)(F)F)cc2)C(=O)C12CCN(CC1CCS(=O)(=O)CC1)CC2
IC50 [12]: 73000 nM

EC50 [2]: 68 nM
pKa [5]: 5.7
Structure (SMILES): CCN1C(=O)N(c2ccc(C(F)(F)F)cc2)C(=O)C12CCN(CC1(F)CCOCC1)CC2
IC50 [12]: 65000 nM

EC50 [2]: 20 nM
CLhep predicted at 1 h, 1 µM [6]: < 14 mL/min/kg
Structure (SMILES): CN1C(=O)N(c2ccc(C(F)(F)F)cc2)C(=O)C12CCN(CC1CCOCC1)CC2

half-life at 24 h [13]: 5.3 h
fraction unbound at 6 h, 5 µM [14]: 0.376
clearance at 8 h [1]: 9.2 mL/min/kg
Papp A→B [18]: 14 ×10⁻⁶ cm/s
Vd at […] [3]: 5.1 L/kg
solubility kinetic [19]: 29 µM (≈ 12.9 µg/mL)
Kp uu at 8 h [4]: 0.6
Papp A→B [20]: 20 ×10⁻⁶ cm/s
fraction unbound at 6 h, 5 µM [21]: 0.296
bioavailability at 8 h [22]: 13%
CLhep predicted at 1 h, 1 µM [6]: < 14 mL/min/kg
Vd at 8 h [7]: 8.3 L/kg
Kp uu at 8 h [8]: 0.56
half-life at […] [9]: 5.7 h
fraction unbound at 6 h, 5 µM [23]: 0.278
bioavailability at 24 h [24]: 47%
half-life at 8 h [10]: 12 h
clearance at […] [11]: 9.9 mL/min/kg
Kp uu at 8 h [25]: 0.58
Kp uu at 8 h [26]: 0.62
Structure (SMILES): CCN1C(=O)N([C@H]2CC[C@H](C(F)(F)F)CC2)C(=O)C12CCN(CC1CCOCC1)CC2
IC50 [12]: 8000 nM

EC50 [2]: 315 nM
CLhep predicted at 1 h, 1 µM [6]: < 14 mL/min/kg
EC50 [27]: 669 nM
Structure (SMILES): CC(C)N1C(=O)N(c2ccc(C(F)(F)F)cc2)C(=O)C12CCN(CC1CCOCC1)CC2

CLhep predicted at 1 h, 1 µM [6]: 25 mL/min/kg
half-life at […] [9]: 5.7 h
Structure (SMILES): CCN1C(=O)N(c2ccc(Cl)cc2)C(=O)C12CCN(CC1CCOCC1)CC2

CLhep predicted at 1 h, 1 µM [6]: < 14 mL/min/kg
Structure (SMILES): O=C1N(c2ccc(C(F)(F)F)cc2)C(=O)C2(CCN(CC3CCOCC3)CC2)N1C1CC1

EC50 [2]: 36 nM
CLhep predicted at 1 h, 1 µM [6]: 18 mL/min/kg
EC50 [27]: 147 nM
Structure (SMILES): O=C1N(c2ccc(C(F)(F)F)cc2)CCC12CCN(CC1CCOCC1)CC2

EC50 [2]: 18 nM
CLhep predicted at 1 h, 1 µM [6]: < 14 mL/min/kg
half-life at […] [9]: 1.8 h
Structure (SMILES): CCN1C(=O)N(c2ccc(C)cc2)C(=O)C12CCN(CC1CCOCC1)CC2

EC50 [2]: 16 nM
CLhep predicted at 1 h, 1 µM [6]: 35 mL/min/kg
half-life at […] [9]: 0.8 h
Structure (SMILES): CCN1C(=O)N(c2cc(Cl)cc(C#N)c2)C(=O)C12CCN(CC1CCOCC1)CC2

EC50 [2]: 41 nM
pKa [5]: 8.2
Structure (SMILES): CCN1C(=O)N(c2ccc(C(F)(F)F)cc2)C(=O)C12CCN(C(C)C1CCOCC1)CC2 (stereo not given)
IC50 [12]: 2900 nM

EC50 [2]: 95 nM
pKa [5]: 8.1
Structure (SMILES): CCN1C(=O)N(c2ccc(C(F)(F)F)cc2)C(=O)C12CCN(C1CCCOCC1)CC2 (stereo not given)
IC50 [12]: 850 nM
